Experimental data from the CheMixHub viscosity set.

Test: xn = mol fraction of the nth substance listed

C1N2CN3CN1CN(C2)C3 + O
101 kPa
Conditions	viscosity [mPa·s]
293.15 K, x1 = 0.003601	1.028
293.15 K, x1 = 0.007176	1.072
293.15 K, x1 = 0.01043	1.127
293.15 K, x1 = 0.01396	1.205
293.15 K, x1 = 0.01775	1.308
297.35 K, x1 = 0.022	1.515
297.35 K, x1 = 0.031	1.736
297.35 K, x1 = 0.041	2.087
297.55 K, x1 = 0.052	2.537
298.15 K, x1 = 0.003601	0.928
298.15 K, x1 = 0.007176	0.979
298.15 K, x1 = 0.01043	1.033
298.15 K, x1 = 0.01396	1.101
298.15 K, x1 = 0.01775	1.185
300.15 K, x1 = 0.003601	0.83
300.15 K, x1 = 0.007176	0.874
300.15 K, x1 = 0.01043	0.922
300.15 K, x1 = 0.01396	0.982
300.15 K, x1 = 0.01775	1.058
302.15 K, x1 = 0.022	1.389
302.35 K, x1 = 0.031	1.627
302.35 K, x1 = 0.052	2.222
302.75 K, x1 = 0.041	1.832
305.15 K, x1 = 0.003601	0.74
305.15 K, x1 = 0.007176	0.777
305.15 K, x1 = 0.01043	0.822
305.15 K, x1 = 0.01396	0.884
305.15 K, x1 = 0.01775	0.967
306.95 K, x1 = 0.031	1.483
307.35 K, x1 = 0.022	1.321
307.35 K, x1 = 0.041	1.689
307.35 K, x1 = 0.052	2.056
311.95 K, x1 = 0.022	1.251
312.15 K, x1 = 0.031	1.375
312.15 K, x1 = 0.041	1.595
312.15 K, x1 = 0.052	1.864

CO/N=C(\C(=O)N[C@@H]1C(=O)N2C(C(=O)[O-])=C(CSc3nc(=O)c(=O)[n-]n3C)CS[C@H]12)c1csc(N)n1.[Na+].[Na+] + O
viscosity [mPa·s], 100 kPa
Conditions	293.15 K	298.15 K	303.15 K	308.15 K	313.15 K
x1 = 9e-05	1.012	0.8968	0.8033	0.7267	0.6584
x1 = 0.00018	1.016	0.9026	0.807	0.7308	0.6615
x1 = 0.000349	1.053	0.935	0.829	0.744	–
x1 = 0.000873	1.12	0.994	0.885	0.794	–
x1 = 0.0009	1.03	0.9163	0.8185	0.7413	0.6726
x1 = 0.00139	1.2	1.062	0.945	0.849	–
x1 = 0.002501	1.399	1.231	1.1	0.982	–
x1 = 0.003119	1.527	1.348	1.195	1.07	–
x1 = 0.003887	1.701	1.495	1.323	1.184	–
x1 = 0.004766	1.918	1.674	1.48	1.322	–
x1 = 0.005482	2.122	1.858	1.638	1.455	–

CO/N=C(\C(=O)N[C@@H]1C(=O)N2C(C(=O)[O-])=C(CSc3nc(C)c(CC(=O)[O-])s3)CS[C@H]12)c1csc(N)n1.[Na+].[Na+] + O
Conditions	viscosity [mPa·s]
293.15 K, 101 kPa, x1 = 0.002695	1.285

NCCC(=O)N[C@@H](Cc1c[nH]cn1)C(=O)O + O
viscosity [mPa·s], 100 kPa
Conditions	x1 = 0.000358	x1 = 0.00054	x1 = 0.000713	x1 = 0.00108	x1 = 0.00126	x1 = 0.00143	x1 = 0.00162
293.15 K	1.024	1.028	1.03	1.046	1.053	1.058	1.06
298.15 K	0.908	0.909	0.915	0.928	0.933	0.938	0.938
303.15 K	0.813	0.814	0.818	0.831	0.835	0.839	0.84
308.15 K	0.732	0.733	0.738	0.747	0.752	0.756	0.756
313.15 K	0.663	0.664	0.669	0.676	0.681	0.683	0.685

O=S(=O)([O-])[O-].[NH3+]O.[NH3+]O + O
viscosity [mPa·s], 101 kPa
Conditions	x1 = 0.001	x1 = 0.002	x1 = 0.006	x1 = 0.012	x1 = 0.019	x1 = 0.027	x1 = 0.035	x1 = 0.045
293.15 K	1.022	1.046	1.134	1.264	1.435	1.678	1.925	2.198
298.15 K	0.905	0.931	0.995	1.121	1.277	1.481	1.706	1.983
303.15 K	0.811	0.831	0.89	1.006	1.148	1.317	1.523	1.849
313.15 K	0.666	0.683	0.734	0.825	0.937	1.075	1.244	1.508
323.15 K	0.559	0.573	0.616	0.693	0.791	0.901	1.04	1.247

Oc1ccccc1 + O
viscosity [mPa·s], 101 kPa
Conditions	293.15 K	303.15 K	313.15 K	323.15 K
x1 = 0.004	1.056	0.8342	0.6816	0.5696
x1 = 0.008	1.107	0.8703	0.7185	0.5898
x1 = 0.01	1.16	0.9071	0.737	0.611
x1 = 0.02	1.215	0.9485	0.7664	0.634
x1 = 0.021	–	–	–	0.66
x1 = 0.31	–	2.972	2.253	1.775
x1 = 0.36	4.372	3.153	2.383	1.858
x1 = 0.43	4.731	3.393	2.553	1.981
x1 = 0.52	5.273	3.742	2.792	2.164
x1 = 0.63	6.146	4.288	3.161	2.42
x1 = 0.78	–	–	3.77	–
